Data taken from ChEMBL document CHEMBL4190274, “A Cyclopeptide and a Tetrahydroisoquinoline Alkaloid from Ophiorrhiza nutans” (J Nat Prod, 2017).

Tests used:
Assay type in all cases: functional, cell-based
A549 = test: Cytotoxicity against human A549 cells
HCT-116 = test: Cytotoxicity against human HCT116 cells
HT-29 = test: Cytotoxicity against human HT-29 cells

Measured: IC50

C[N+](C)(C)[C@@H](Cc1ccc(O)cc1)C(=O)N[C@@H]1C(=O)N[C@@H](Cc2ccccc2)C(=O)N[C@H](C(=O)[O-])Cc2ccc(cc2)O[C@@H]1c1ccccc1
> 15 µM: A549 | HCT-116 | HT-29
